The subject of assay [1] is Vero cells. Put plainly: Cytotoxicity effect on Vero cells (MTS-PMS assay). The assay is classed as cell-based, African green monkey. Conditions: Chlorocebus sabaeus, read-out: EC50 against Vero cells. The procedure:
Vero cells were harvested by trypsinization when it reached 80–90% confluence. A volume of 100 μl Vero cells (6 x 10^4 cells/ml) in GM was cultured in triplicate wells of a 96-well plate and incubated for 24 hours.
MTS solution was prepared (2 mg/ml) by dissolving the powder in PBS. Exposure to light was avoided during the preparation. PMS (0.92 mg/ml) was similarly prepared in PBS and both solutions were stored at -20 °C. A volume of 20 μl of MTS solution was added into each well and the cells were incubated for one hour in a CO2 incubator [23, 24]. The absorbance (abs) was then measured at 490 nm using a microplate reader (Thermo Scientific Multiskan®Spectrum, USA). The percentage of cell viability was calculated using the following formula [25, 26]. The graphs were plotted and analyses their statistical data using Prism 5.0 (GraphPad Software Inc., CA USA) (S1 Dataset and S3 Dataset).
%ofcellviability=Opticaldensity(OD)oftreatedcell/Opticaldensity(OD)ofuntreatedcell(cellonly)
(Formazan colour is commonly taken as a measure of viable cells.)

In assay [2] the test system is T. gondii tachyzoites RH strain. Put plainly: Treatment of T. gondii-infected Vero cells (MTS-PMS assay). In kind it is cell-based, Toxoplasma gondii. Conditions: for EC50: Toxoplasma gondii, read-out: EC50 against T. gondii; for Selectivity Index (SI): Vero Cell (EC50)/T. gondii EC50. As for the experimental part:
Vero cells were harvested by trypsinization when it reached 80–90% confluence. A volume of 100 μl diluted Vero cells of (6 x 10^4 cells/ml) in GM was cultured in triplicate wells of a 96-well plate and incubated for 24 hours. Then, 100 μl of tachyzoites (3 x 10^5 /ml) in GM2 (comprising DMEM, 0.5% PS and 2% FBS) were added into the Vero cell-seeded wells. A volume of 100 ul the above medium was added to the negative control well and the plate was incubated for six hours. Subsequently, the wells were washed twice with WM to remove non-adherent parasites. A volume of 100 μl of GM2 was added and again incubated for 18 hours. […] The negative control well contained 100 μl Vero cells and PBS in control wells for NCI compounds.
The percent cell viability was proportional to the mortality of T. gondii. The graphs were plotted and analyses their statistical data using Prism 5.0 (GraphPad Software Inc., CA USA) (S2 Dataset and S4 Dataset). […] Selectivity refers to the mean of the EC50 value for Vero cells relative to the mean of the EC50 value of the T. gondii. A P value of less than 0.05 was considered statistically significant and all data points represent the mean of three independent experiments. SI (selectivity index) measures the strength of inhibition against the Vero cells and the T. gondii.
SelectivityIndex(SI)=VeroCell(EC50)/T.gondiiEC50

[3] abbreviates: T. gondii-infected Vero cells, 24 hours treatment, MTS-PMS, molar value in brackets.
Setting [4] is: T. gondii-infected Vero cells, 24 hours treatment, MTS-PMS.

Values after ≈ are worked out from the molar mass of the structure shown. Values joined by “and” are separate entries in the source; they are usually repeats but may differ in a detail not shown here. Identical values can stand only once. Like-named read-outs stand apart in the source and are kept apart here.

One may read the EC50 as the concentration that produces a half-maximal response.

For `O=c1[nH]cc(F)c(=O)[nH]1` [5-Fluorouracil, 5-fluorouracil, reference compound], in assay [1] (24 hours treatment, MTS-PMS), the EC50 turned out to be 9.72 µg/mL (≈ 74.7 µM).

With `NCCN1CCNCC1` [NSC38968, 2-(piperazin-1-yl)ethan-1-amine], the EC50 in assay [2] (setting [3]) worked out at 37 µM; in assay [2] (setting [4]) it was 4.82 µg/mL; in assay [1] (24 hours treatment, MTS-PMS), 21.5 µg/mL (≈ 166 µM). Further, the “Selectivity Index (SI)” value in assay [2] stood at 4.5.

For `CCOC1CCc2c(C)nc(N)nc2S1` (stereo not shown) [NSC77468, 7-ethoxy-4-methyl-6,7-dihydro-5H-thiopyrano[2,3-d]pyrimidin-2-amine], the EC50 in assay [2] (setting [3]) was 8.5 µM; in assay [2] (setting [4]) it was 1.92 µg/mL; in assay [1] (24 hours treatment, MTS-PMS) it was 47.8 µg/mL (≈ 212 µM). Further, the “Selectivity Index (SI)” value in assay [2] is 25.

`NS(=O)(=O)c1ccc(Cl)cc1[N+](=O)[O-]` [NSC81213, 4-chloro-2-nitrobenzene-1-sulfonamide]: the concentration for a half-maximal effect (EC50) in assay [2] (setting [3]) was 20 µM; in assay [2] (setting [4]) it was 4.75 µg/mL; in assay [1] (24 hours treatment, MTS-PMS), 24.6 µg/mL (≈ 104 µM). In addition, the “Selectivity Index (SI)” value in assay [2] came out at 5.2.

Regarding `C1CC2CCNC3CCNC(C1)N23` (stereo not shown) [NSC81462, dodecahydro-1,4,9b-triazaphenalene], the concentration giving a half-maximal response (EC50) in assay [2] (Vero, 24 h) was 3.24 µg/mL and 17.8 µM; in assay [1] (24 h), 39 µg/mL (≈ 215 µM). In addition, the “Selectivity Index (SI)” value in assay [2] is recorded as 12.0.

With `CC1=C(C(N)=O)S(=O)(=O)c2ccccc21` [NSC108972, 3-methyl-1,1-dioxo-1 H -1-benzothiophene-2-carboxamide], the EC50 in assay [2] (setting [3]) came out at 32 µM; in assay [2] (setting [4]), 7.17 µg/mL; in assay [1] (24 hours treatment, MTS-PMS) it was 28 µg/mL (≈ 126 µM). Moreover, in assay [2], the “Selectivity Index (SI)” value is on record as 3.9.

As for `COc1ccccc1N1C(=O)CC(Sc2cccc(N)c2)C1=O` (stereo not shown) [NSC153391, 3-[(3-aminophenyl)sulfanyl]-1-(2-methoxyphenyl)pyrrolidine-2,5-dione], in assay [2] (setting [4]), the “EC50 against T. gondii” value is on record as “Inactive”. Further, in assay [1] (24 hours treatment, MTS-PMS), the EC50 is 24.7 µg/mL (≈ 75.3 µM).

In the case of `Nc1ccc(C(=O)c2cccs2)cn1` [NSC343344, (6-aminopyridin-3-yl)(thiophen-2-yl)methanone], in assay [2] (setting [4]), the “EC50 against T. gondii” value was “Inactive”. Moreover, in assay [1] (24 h), the EC50 is 29.6 µg/mL (≈ 145 µM).

As to `Nc1cc(Cl)ccc1N1C(=O)CCC1=O` [NSC660301, 1-(2-amino-4-chlorophenyl)pyrrolidine-2,5-dione], the EC50 in assay [2] (setting [3]) amounted to 15 µM; in assay [2] (setting [4]), 3.43 µg/mL; in assay [1] (24 hours treatment, MTS-PMS) it was 22.3 µg/mL (≈ 99.2 µM). Also, in assay [2], the “Selectivity Index (SI)” value is listed as 6.5.

(Values after article PMC7244133, “Identification of potential dual -targets anti- toxoplasma gondii compounds through structure-based virtual screening and in-vitro studies” (PLoS ONE, 2020).)
